Results as given in ChEMBL document CHEMBL1201862, “PubChem BioAssay data set” (2004).
Several values for one entry are separate records, joined by “and”; a condition that tells them apart may be missing. Identical values can stand only once. Activity calls are given as the source filed them.

Columns and labels:
[1] = molecular target: T1, SUMO-activating enzyme (Homo sapiens, UniProt Q9UBT2); assay: SUMOylation inhibitor hit validation, confirmation, SUMOylation inhibitor project, biochemical, AlphaScreen (AID 2018); format: functional
[2] = molecular target: T1, SUMO-activating enzyme; assay: inhibitors of in vitro SUMOylation cascade, primary screen, biochemical, HTRF, uHTS (AID 2006); format: protein-complex assay
[3] = molecular target: T2, DNA dC->dU-editing enzyme APOBEC-3A (Homo sapiens, UniProt P31941); assay: APOBEC3A DNA deaminase inhibitors, dose response, biochemical (AID 504722); format: functional
[4] = molecular target: T3, DNA dC->dU-editing enzyme APOBEC-3G (Homo sapiens, UniProt Q9HC16); assay: Dose Response confirmation of small molecule APOBEC3G DNA Deaminase Inhibitors via a fluorescence-based single-stranded DNA deaminase assay. [Related pubchem assays (depositor defined):AID493012, AID493028]; format: functional
[5] = molecular target: T4, Leucine aminopeptidase (Plasmodium falciparum 3D7, UniProt Q8IL11); assay: P. falciparum M17LAP inhibitors, primary screen, biochemical, fluorogenic H-Leu-NHMec substrate, 1536-well (AID 1619); format: functional
T4 sequence (Q8IL11 whole entry): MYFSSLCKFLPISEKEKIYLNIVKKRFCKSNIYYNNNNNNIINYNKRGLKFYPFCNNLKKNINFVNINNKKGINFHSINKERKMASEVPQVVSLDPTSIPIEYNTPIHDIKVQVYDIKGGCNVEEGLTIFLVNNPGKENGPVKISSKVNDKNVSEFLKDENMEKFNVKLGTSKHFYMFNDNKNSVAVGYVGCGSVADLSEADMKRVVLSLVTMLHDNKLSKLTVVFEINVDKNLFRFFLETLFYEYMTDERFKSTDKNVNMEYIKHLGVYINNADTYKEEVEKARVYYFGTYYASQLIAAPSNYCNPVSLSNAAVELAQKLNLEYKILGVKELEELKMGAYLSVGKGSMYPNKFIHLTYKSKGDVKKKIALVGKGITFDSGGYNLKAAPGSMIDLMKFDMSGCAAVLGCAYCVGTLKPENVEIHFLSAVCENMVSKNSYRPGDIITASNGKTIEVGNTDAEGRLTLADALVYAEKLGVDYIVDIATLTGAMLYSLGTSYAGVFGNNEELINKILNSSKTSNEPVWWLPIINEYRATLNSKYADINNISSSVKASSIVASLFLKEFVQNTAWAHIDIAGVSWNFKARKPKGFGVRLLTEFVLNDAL

[6] = molecular target: T5, Aminopeptidase N (Plasmodium falciparum FcB1/Columbia, UniProt O96935); assay: P. falciparum M1AAP inhibitors, biochemical, fluorogenic H-Leu-NHMec substrate, 1536-well (AID 1445); design: species or system Plasmodium falciparum 3D7, 3D7
T5 sequence (O96935 whole entry): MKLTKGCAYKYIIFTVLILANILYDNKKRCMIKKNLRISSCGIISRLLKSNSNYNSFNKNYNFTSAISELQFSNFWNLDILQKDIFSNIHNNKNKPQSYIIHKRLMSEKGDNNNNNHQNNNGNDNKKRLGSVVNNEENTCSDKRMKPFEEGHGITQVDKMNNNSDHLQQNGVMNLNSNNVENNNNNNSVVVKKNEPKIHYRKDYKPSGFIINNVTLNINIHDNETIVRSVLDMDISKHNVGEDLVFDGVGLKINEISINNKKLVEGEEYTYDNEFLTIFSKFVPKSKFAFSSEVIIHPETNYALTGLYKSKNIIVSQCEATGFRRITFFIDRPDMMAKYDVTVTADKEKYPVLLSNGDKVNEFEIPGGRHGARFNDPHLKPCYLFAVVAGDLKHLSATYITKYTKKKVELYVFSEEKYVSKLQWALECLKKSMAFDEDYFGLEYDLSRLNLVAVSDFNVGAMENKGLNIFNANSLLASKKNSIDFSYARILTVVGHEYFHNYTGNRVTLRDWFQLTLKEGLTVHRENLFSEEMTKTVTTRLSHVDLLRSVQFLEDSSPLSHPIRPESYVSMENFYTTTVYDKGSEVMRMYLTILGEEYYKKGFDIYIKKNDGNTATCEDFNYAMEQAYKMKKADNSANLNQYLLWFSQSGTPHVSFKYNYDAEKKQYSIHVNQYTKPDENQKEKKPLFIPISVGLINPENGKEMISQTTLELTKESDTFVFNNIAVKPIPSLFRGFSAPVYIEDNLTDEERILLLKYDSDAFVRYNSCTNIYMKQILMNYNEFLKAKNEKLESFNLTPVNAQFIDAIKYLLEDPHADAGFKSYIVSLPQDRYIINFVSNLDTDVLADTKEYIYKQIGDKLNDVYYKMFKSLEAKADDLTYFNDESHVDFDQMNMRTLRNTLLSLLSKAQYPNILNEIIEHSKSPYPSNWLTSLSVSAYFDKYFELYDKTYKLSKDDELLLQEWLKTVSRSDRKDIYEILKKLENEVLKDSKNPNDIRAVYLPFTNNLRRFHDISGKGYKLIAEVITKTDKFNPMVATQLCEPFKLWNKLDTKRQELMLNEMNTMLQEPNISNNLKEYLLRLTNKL

[7] = molecular target: T6, RNA-binding protein pos-1 (Caenorhabditis elegans, UniProt G5EF15); assay: inhibitors of POS-1/mex-3 RNA binding, dose response, biochemical, fluorescence polarization (AID 1964);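 note: purified POS-1 fused to maltose binding protein made in E. coli; potency of compounds blocking POS-1 binding to fluorescent RNA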
T6 sequence (G5EF15 whole entry): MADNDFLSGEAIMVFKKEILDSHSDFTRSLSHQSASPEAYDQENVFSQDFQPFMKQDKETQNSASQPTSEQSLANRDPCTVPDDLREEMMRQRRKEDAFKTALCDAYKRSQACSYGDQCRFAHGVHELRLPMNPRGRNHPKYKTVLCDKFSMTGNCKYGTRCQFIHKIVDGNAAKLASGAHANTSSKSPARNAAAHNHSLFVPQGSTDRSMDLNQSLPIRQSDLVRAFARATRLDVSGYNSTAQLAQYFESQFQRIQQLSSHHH

[8] = molecular target: T7, Zinc finger protein mex-5 (Caenorhabditis elegans, UniProt Q9XUB2); assay: MEX-5/TCR-2 RNA interaction inhibitors, dose response, biochemical, C. elegans, fluorescence polarization (AID 1960)
T7 sequence (Q9XUB2 whole entry): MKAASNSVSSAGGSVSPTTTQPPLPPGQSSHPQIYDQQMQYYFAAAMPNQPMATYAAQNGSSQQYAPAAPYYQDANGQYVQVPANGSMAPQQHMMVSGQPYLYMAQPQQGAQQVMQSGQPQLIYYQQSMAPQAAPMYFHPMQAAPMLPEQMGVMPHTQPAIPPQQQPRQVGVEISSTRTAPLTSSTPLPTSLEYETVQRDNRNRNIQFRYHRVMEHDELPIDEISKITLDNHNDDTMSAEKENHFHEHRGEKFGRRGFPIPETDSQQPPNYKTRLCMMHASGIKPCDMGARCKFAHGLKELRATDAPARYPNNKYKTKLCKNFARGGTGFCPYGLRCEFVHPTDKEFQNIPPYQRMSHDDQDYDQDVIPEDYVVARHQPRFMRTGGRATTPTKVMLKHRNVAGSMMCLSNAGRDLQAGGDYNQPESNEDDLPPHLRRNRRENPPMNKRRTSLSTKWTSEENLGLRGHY

[9] = molecular target: Large T antigen (Simian virus 40, UniProt P03070); format: functional, Betapolyomavirus macacae;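 note: Confirmatory-stage PubChem screen for compounds that inhibit SV40 T antigen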
[10] = molecular target: Induced myeloid leukemia cell differentiation protein Mcl-1 (Homo sapiens, UniProt Q07820); format: functional
[11] = molecular target: Nonstructural protein 1 (Influenza A virus, UniProt Q194T2); format: functional, Influenza A virus (A/California/07/2009(H1N1))
[12] = molecular target: Genome polyprotein (dengue virus type 2, UniProt P29990); assay: Dengue-2 NS5 methyltransferase inhibitors, primary screen, biochemical, confirmation dose response (AID 588689); format: functional
[13] = molecular target: G-protein coupled receptor 55 (Homo sapiens, UniProt Q9Y2T6); assay: GPR55 agonists via beta-arrestin recruitment, primary screen, imaging, U2OS cells, beta-arrestin-GFP redistribution (AID 1961); format: functional
[14] = molecular target: Glyceraldehyde-3-phosphate dehydrogenase (Homo sapiens, UniProt P04406)
[15] = molecular target: Alkaline phosphatase, placental type (Homo sapiens, UniProt P05187); assay: PLAP enzyme inhibitors, confirmation, biochemical, luminescence (AID 1512); format: functional
[16] = molecular target: T8, Alkaline phosphatase, tissue-nonspecific isozyme (Homo sapiens, UniProt P05186); assay: human TNAP enzyme inhibitors, SAR follow-up, biochemical, luminescent, dose response (AID 1056)
T8 sequence (P05186 whole entry): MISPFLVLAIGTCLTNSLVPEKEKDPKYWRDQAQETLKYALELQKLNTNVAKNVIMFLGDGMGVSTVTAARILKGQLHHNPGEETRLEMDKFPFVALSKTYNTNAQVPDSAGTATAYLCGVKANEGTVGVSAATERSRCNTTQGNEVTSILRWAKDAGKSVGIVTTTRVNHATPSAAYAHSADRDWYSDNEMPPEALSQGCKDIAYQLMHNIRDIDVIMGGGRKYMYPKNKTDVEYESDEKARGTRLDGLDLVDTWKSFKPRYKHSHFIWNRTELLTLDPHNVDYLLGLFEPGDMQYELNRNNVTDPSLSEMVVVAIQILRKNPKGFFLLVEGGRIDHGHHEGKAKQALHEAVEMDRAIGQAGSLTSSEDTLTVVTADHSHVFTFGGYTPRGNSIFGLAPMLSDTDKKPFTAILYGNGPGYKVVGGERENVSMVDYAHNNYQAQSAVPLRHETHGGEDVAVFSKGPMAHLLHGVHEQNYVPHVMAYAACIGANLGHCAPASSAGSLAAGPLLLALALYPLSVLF

[17] = molecular target: T2, DNA dC->dU-editing enzyme APOBEC-3A; assay: Dose Response confirmation of small molecule APOBEC3A DNA Deaminase Inhibitors via a fluorescence-based single-stranded DNA deaminase assay. [Related pubchem assays (depositor defined):AID493011, AID493024]; format: functional
[18] = molecular target: T3, DNA dC->dU-editing enzyme APOBEC-3G; format: functional
[19] = molecular target: T9, Carboxy-terminal domain RNA polymerase II polypeptide A small phosphatase 1 (Homo sapiens, UniProt Q9GZU7); assay: inhibitors of CTDSP1, concentration-response testing, biochemical assay, absorbance-based, actives from ultra-high-throughput screening (AID 540297); format: functional
T9 sequence (Q9GZU7 whole entry): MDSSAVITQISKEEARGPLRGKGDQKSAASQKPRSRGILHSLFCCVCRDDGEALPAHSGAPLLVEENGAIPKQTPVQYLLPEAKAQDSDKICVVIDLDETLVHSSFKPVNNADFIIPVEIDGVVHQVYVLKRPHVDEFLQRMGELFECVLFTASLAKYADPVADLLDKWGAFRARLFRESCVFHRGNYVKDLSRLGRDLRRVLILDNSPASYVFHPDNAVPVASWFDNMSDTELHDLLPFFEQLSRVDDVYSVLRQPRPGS

[20] = molecular target: T10, Hexokinase (Trypanosoma brucei, UniProt Q38C41); assay: Confirmation assay for inhibitors of Trypanosoma brucei hexokinase 1-Analogue-first series. [Related pubchem assays (depositor defined):AID1430, AID1632, AID2516, AID2560, AID2579, AID2600, AID449725, AID492951]; format: functional
T10 sequence (Q38C41 whole entry): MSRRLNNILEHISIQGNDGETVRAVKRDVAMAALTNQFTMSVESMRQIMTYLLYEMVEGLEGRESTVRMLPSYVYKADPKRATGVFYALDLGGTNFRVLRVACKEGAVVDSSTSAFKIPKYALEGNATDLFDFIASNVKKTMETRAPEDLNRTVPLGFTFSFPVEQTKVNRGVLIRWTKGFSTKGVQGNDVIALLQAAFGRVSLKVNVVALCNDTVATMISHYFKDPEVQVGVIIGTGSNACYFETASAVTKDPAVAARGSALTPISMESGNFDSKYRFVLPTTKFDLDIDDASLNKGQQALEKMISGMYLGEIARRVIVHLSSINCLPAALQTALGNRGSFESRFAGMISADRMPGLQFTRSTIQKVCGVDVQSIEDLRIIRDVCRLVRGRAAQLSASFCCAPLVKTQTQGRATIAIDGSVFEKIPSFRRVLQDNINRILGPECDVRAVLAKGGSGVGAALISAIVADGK

COc1ccc(C)c2sc(NC(=O)c3cccc(N4C(=O)CCC4=O)c3)nc12
IC50 [1]: 9.99 µM (active)
IC50 [2]: 6.1 µM (active)

COc1cccc(C(=O)NCc2nnc(S)n2-c2cccc(C)c2)c1
IC50 [3]: > 100 µM (inactive)
IC50 [4]: 12.8 µM (active)

O=C(O)c1ccccc1NS(=O)(=O)c1ccc(NNC(=S)Nc2ccc(OC(F)F)cc2)c([N+](=O)[O-])c1
IC50 [5]: 5.33 µM (active)
IC50 [6]: 17.3 µM (active)
EC50 [7]: 7.38 µM (active)
EC50 [8]: 5.57 µM (active)
IC50 [9]: 29.8 µM (active)
IC50 [10]: 2.95 µM (active)
IC50 [11]: 13 µM (active)
IC50 [12]: 18.5 µM (active)

COc1ccc(-c2cc(C(=O)Nc3cc(S(=O)(=O)N4CCOCC4)ccc3N3CCOCC3)c3ccccc3n2)cc1
EC50 [13]: 1.68 µM (active)

O=C1CC(c2ccccc2)Cc2[nH]ncc21 (stereo not drawn)
IC50 [14]: > 100 µM (not active)
IC50 [15]: > 100 µM (inactive)
IC50 [16]: > 100 µM (inactive)

Cc1ccc(-c2nc3ccccc3[nH]2)cc1NC(=S)NC(=O)c1ccccc1Br
EC50 [13]: 2.9 µM (active)

CCc1nc(CNC(=O)c2cc(OC)c(OC)c(OC)c2)no1
IC50 [17]: 2.24 µM (active)
IC50 [18]: 3.11 µM (active)

Cc1ccc(C)c(NC(=O)Cn2cc(C(=O)C3CC3)c3ccccc32)c1
IC50 [17]: 6.88 µM (active)
IC50 [18]: 6.11 µM (active)

Cc1cc(Br)ccc1NC(=O)CN(C)C(=O)Cn1c(=O)cnc2ccccc21
IC50 [17]: 5.76 µM (active)
IC50 [18]: 6.85 µM (active)
IC50 [19]: 7.57 µM (active)

COc1ccc(C(=O)Nc2ccccc2-c2nn[nH]n2)cc1
IC50 [20]: > 25 µM (inactive)

CC(C)(C)OC(=O)NC1(C(Cl)(Cl)Cl)Oc2ccccc2O1
IC50 [15]: > 100 µM (inactive)
IC50 [16]: > 100 µM (inactive)

COc1ccc(C(=O)Nc2cc(Cl)ccc2C(=O)O)cc1OC
IC50 [20]: 15.5 µM (active)

Sc1nc(-c2ccccc2)cn1/N=C/c1cccnc1
IC50 [3]: > 100 µM (inactive)
IC50 [4]: 4.77 µM (active)

COC(=O)c1cc(-c2ccc(Cl)cc2Cl)n[nH]1
IC50 [14]: > 100 µM (not active)
IC50 [15]: > 100 µM (inactive)
IC50 [16]: 264 nM (active) and 315 nM (active)
